Non-standard residues stand in square brackets, D forms with d. Residues, ends and D or L forms follow the SMILES beside them. *: point of attachment. Asu = N[C@@H](CCCCCC(=O)O)C(=O)O; NHOH = ON*

Data set [1] is filed under the species Homo sapiens. Kind of data set: Selectivity index, ratio of IC50 for Inhibition of human HDAC3 to Inhibition of human IC50 for HDAC2.
The target in data set [2] is T1, Histone deacetylase 2 (Homo sapiens, UniProt Q92769). The data set is described as follows: Binding affinity to human HDAC2 assessed as half life.
T1 sequence (Q92769 whole entry): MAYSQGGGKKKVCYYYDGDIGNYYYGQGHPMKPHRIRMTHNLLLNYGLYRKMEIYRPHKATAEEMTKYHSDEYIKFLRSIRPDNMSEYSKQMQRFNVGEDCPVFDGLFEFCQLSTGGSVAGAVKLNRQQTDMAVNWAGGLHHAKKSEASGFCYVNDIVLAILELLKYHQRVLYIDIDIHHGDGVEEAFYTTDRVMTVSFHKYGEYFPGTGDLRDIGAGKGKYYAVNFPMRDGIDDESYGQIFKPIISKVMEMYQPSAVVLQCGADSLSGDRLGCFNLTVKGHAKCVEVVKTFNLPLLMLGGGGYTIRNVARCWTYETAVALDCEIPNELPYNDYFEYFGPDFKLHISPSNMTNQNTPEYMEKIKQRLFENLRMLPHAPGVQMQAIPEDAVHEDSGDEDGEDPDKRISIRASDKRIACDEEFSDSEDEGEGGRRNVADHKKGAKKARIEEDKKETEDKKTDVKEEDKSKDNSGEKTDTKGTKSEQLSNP
Data set [3] deals with T2, Histone deacetylase 1 (Homo sapiens, UniProt Q13547). The data set is described as follows: Binding affinity to human HDAC1 assessed as half life.
T2 sequence (Q13547 whole entry): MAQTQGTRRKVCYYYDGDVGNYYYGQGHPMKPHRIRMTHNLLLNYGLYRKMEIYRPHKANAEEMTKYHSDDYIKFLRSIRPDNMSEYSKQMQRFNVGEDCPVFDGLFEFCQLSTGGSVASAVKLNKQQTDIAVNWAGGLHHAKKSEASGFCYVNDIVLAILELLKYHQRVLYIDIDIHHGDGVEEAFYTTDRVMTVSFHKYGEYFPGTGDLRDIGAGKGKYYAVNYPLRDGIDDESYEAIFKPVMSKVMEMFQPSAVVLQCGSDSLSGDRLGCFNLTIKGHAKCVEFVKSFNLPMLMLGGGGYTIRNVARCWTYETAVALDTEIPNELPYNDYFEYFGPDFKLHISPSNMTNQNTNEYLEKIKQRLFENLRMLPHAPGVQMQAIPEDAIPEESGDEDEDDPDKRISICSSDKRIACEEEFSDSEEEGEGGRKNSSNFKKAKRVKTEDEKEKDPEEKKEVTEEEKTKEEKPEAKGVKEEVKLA
Data set [4] is filed under the species Homo sapiens. The data set is described as follows: Selectivity index, ratio of IC50 for Inhibition of human HDAC3 to IC50 for Inhibition of human HDAC1.
Data set [5] deals with T3, Histone deacetylase 3 (Homo sapiens, UniProt O15379). The data set is described as follows: Binding affinity to human HDAC3 assessed as half life.
T3 sequence (O15379 whole entry): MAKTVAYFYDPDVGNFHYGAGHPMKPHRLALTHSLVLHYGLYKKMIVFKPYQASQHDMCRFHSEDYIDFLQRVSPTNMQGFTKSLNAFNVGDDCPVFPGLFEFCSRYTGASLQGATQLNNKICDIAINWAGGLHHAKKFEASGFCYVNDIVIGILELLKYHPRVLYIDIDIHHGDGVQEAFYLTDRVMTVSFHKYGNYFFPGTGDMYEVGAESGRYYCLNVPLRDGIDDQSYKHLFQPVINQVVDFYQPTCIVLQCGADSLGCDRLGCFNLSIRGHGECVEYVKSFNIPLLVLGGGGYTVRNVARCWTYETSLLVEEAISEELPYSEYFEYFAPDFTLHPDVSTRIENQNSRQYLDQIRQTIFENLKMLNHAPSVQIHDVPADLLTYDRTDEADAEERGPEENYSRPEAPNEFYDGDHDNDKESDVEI
For data set [6], the target named is T3, Histone deacetylase 3. Kind of data set: Binding affinity to human HDAC3 assessed as residence time.
Data set [7] concerns the target T3, Histone deacetylase 3. The data set is described as follows: Binding affinity to human HDAC3 assessed as dissociation rate constant (Koff).
In data set [8] the target is T3, Histone deacetylase 3. Kind of data set: Binding affinity to human HDAC3 assessed as binding rate constant (Kon).
In data set [9] the target is T1, Histone deacetylase 2. Kind of data set: Binding affinity to human HDAC2 assessed as residence time.
The target of data set [10] is T2, Histone deacetylase 1. Conditions: HEK293T.
Data set [11] has as its target T3, Histone deacetylase 3.
Description: Binding affinity to HDAC3 (unknown origin) using Ac-LGKac-AMC as substrate assessed as half life
Data set [12] has as its target T1, Histone deacetylase 2.
Description: Binding affinity to HDAC2 (unknown origin) using Ac-LGKac-AMC as substrate assessed as half life
The target in data set [13] is T1, Histone deacetylase 2. This is another data set of the same source.
Description: Binding affinity to HDAC2 (unknown origin) using Ac-LGKac-AMC as substrate assessed as residence time
Data set [14] deals with T2, Histone deacetylase 1.
Description: Binding affinity to HDAC1 (unknown origin) using Ac-LGKac-AMC as substrate assessed as half life
Data set [15] has as its target T3, Histone deacetylase 3. The data set is described as follows: Inhibition of HDAC3 (unknown origin) measured after 24 hrs by fluorescence based assay.
Data set [16] has as its target T3, Histone deacetylase 3. The data set is described as follows: Inhibition of HDAC3 (unknown origin) measured after 1 hrs by fluorescence based assay.
For data set [17], the target named is T1, Histone deacetylase 2. The data set is described as follows: Inhibition of HDAC2 (unknown origin) measured after 1 hrs by fluorescence based assay.
Data set [18] deals with T2, Histone deacetylase 1. The data set is described as follows: Inhibition of HDAC1 (unknown origin) measured after 1 hrs by fluorescence based assay.
Data set [19] concerns the target T3, Histone deacetylase 3. The data set is described as follows: Binding affinity to HDAC3 (unknown origin) assessed as binding constant(k-2).
Data set [20] has as its target T3, Histone deacetylase 3. Kind of data set: Binding affinity to HDAC3 (unknown origin) assessed as inhibition constant.
Data set [21] has as its target T4, Protein deacetylase HDAC6 (Homo sapiens) (UniProt Q9UBN7).
T4 sequence (whole entry): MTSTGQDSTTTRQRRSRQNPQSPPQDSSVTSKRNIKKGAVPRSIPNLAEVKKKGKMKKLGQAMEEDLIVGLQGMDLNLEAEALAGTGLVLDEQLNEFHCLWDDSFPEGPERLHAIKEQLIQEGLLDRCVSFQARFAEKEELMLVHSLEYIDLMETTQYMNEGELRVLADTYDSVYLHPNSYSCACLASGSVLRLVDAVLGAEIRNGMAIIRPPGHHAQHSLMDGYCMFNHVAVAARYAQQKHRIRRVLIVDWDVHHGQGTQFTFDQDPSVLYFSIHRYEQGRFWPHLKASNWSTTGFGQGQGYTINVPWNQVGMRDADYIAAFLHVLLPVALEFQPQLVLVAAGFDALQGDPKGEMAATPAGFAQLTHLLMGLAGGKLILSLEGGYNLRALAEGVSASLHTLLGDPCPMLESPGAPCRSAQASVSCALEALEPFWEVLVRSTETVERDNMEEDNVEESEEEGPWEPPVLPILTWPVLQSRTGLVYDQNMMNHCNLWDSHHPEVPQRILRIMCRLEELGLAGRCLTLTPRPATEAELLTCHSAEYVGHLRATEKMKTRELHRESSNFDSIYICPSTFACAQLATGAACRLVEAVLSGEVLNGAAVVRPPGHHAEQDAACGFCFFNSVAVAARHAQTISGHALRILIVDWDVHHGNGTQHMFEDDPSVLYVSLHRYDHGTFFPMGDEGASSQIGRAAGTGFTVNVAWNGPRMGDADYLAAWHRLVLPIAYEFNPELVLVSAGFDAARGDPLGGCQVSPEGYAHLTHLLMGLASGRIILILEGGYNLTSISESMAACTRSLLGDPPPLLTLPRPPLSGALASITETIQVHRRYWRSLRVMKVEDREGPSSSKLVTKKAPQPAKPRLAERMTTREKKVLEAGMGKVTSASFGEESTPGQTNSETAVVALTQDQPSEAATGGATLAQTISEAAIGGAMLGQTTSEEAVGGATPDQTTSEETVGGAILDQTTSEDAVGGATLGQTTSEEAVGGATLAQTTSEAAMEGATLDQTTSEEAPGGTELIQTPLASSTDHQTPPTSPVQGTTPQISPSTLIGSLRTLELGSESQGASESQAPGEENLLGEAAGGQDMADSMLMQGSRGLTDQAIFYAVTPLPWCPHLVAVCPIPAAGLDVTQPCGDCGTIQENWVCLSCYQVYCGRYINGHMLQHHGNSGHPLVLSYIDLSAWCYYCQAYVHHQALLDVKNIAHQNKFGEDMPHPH
The data set is described as follows: Binding affinity to recombinant human HDAC6 using Ac-Leu-Gly-Lys(Ac)-AMC as substrate assessed as residence time.

Data set [22] deals with T3, Histone deacetylase 3. The data set is described as follows: Binding affinity to HDAC3 (unknown origin) assessed as binding constant(k2).
Data set [23] deals with T4, Protein deacetylase HDAC6 (Homo sapiens). The data set is described as follows: Binding affinity to recombinant human HDAC6 using Ac-Leu-Gly-Lys(Ac)-AMC as substrate measured after 60 mins assessed as binding constant (k-2) by fluorescence based assay.
Data set [24] has the same target. Kind of data set: Binding affinity to recombinant human HDAC6 using Ac-Leu-Gly-Lys(Ac)-AMC as substrate measured after 60 mins assessed as binding constant (k2) by fluorescence based assay.
The target of data set [25] is T5, Protein deacetylase HDAC6 (Homo sapiens, UniProt Q9UBN7).
T5 sequence (Q9UBN7 whole entry): T4 sequence (whole entry)
Kind of data set: Binding affinity to recombinant human HDAC6 using Ac-Leu-Gly-Lys(Ac)-AMC as substrate measured after 60 mins assessed as inhibition constant by fluorescence based assay.

The target of data set [26] is T3, Histone deacetylase 3. Kind of data set: Binding affinity to HDAC3 (unknown origin) assessed as residence time.
The target of data set [27] is T5, Protein deacetylase HDAC6. The data set is described as follows: Binding affinity to recombinant human HDAC6 using Ac-Leu-Gly-Lys(Ac)-AMC as substrate measured after 60 mins assessed as inhibition constant (ki,1) by fluorescence based assay.
The target of data set [28] is T3, Histone deacetylase 3. The data set is described as follows: Binding affinity to HDAC3 (unknown origin) assessed as inhibition constant(ki,1).
Data set [29] can be described thus: in vivo. Conditions: C57BL/6, mouse, brain, ip, 25 mg/kg.
Description: Half life in C57BL/6 mouse brain at 25 mg/kg, ip
The target of data set [30] is T3, Histone deacetylase 3. This is another data set of the same source.
The target of data set [31] is T2, Histone deacetylase 1. This is another data set of the same source.
For data set [32], the target named is T2, Histone deacetylase 1. Kind of data set: Binding affinity to HDAC1 (unknown origin) assessed as dissociation constant (Koff).
Data set [33] concerns the target T2, Histone deacetylase 1. Kind of data set: Binding affinity to HDAC1 (unknown origin) assessed as binding constant (Kon).
Data set [34] deals with T1, Histone deacetylase 2. The source holds these as a separate data set.
A short description of data set [35]: Half life in C57BL/6 mouse brain at 45 mg/kg, ip. It counts as ADME, organism-based.

Turning to `CC(=O)Nc1ccc(C(=O)Nc2ccc(F)cc2N)cc1`, the Ratio IC50 in data set [1] and in [4] was greater than 17 each time. The T1/2 turned out to be 0.217 h in [2], 2.5 min in [3] and 1.32 h in data set [5]. For the same compound, the TIME turned out to be 1.9 h in [6] and 0.3 h in data set [9]. Besides, the K in [7] came to 0.009 min⁻¹; in [8], 5000 M⁻¹ s⁻¹.

As for `Cc1ccc(NC(=O)CCCCCC(=O)Nc2ccccc2N)cc1`, the T1/2 in data set [10] is 1.5 h.

As for `CC(=O)Nc1ccc(C(=O)Nc2ccccc2N)cc1`, the T1/2 is greater than 0.833 h in [11], greater than 2.32 h in data set [12], 3.33 h in data set [13] and greater than 23.1 h in data set [14].

Regarding `O=C(/C=C(\CO)c1ccccc1)c1ccccc1`, the half-maximal inhibitory concentration (IC50) (usually the concentration that inhibits the measured activity by half) in data set [15] is roughly 50 µM; in data set [16], roughly 50 µM; in [17], 9.19 µM; in data set [18] it was 3.68 µM.

On to `O=C(CCCCC[C@@H]1NC(=O)[C@H]2CCCN2C(=O)[C@H](Cc2ccccc2)NC(=O)[C@H](Cc2ccccc2)NC1=O)NO` (cyclo([Asu](NHOH)FF[dP])), for which the K in data set [19] is 0.004 min⁻¹; in data set [22], 0.26 min⁻¹; in data set [23], 0.006 min⁻¹; in data set [24], 0.148 min⁻¹. Moreover, the inhibitory constant (Ki) (usually a measure of affinity in units of concentration, obtained from inhibition or displacement) in data set [20] is 0.0002 µM; in [25], roughly 0.0012 µM; in [27], 0.034 µM; in [28], 0.0014 µM. Further, the TIME was found to be 2.92 h in data set [21] and 4.17 h in data set [26].

Regarding `O=C(CCCCCCC(=O)Nc1ccccc1)NO` [VORINOSTAT], the half-life (usually how long it takes for the measured level to halve) in data set [29] was 0.44 h. The figures for the T1/2 in data set [30] and in [31] were less than 0.0667 h and less than 4 min, respectively.

Take `Nc1ccc(-c2ccncc2)cc1NC(=O)N1CCCC1`: the K in data set [32] was 0.011 min⁻¹; in data set [33], 3080 M⁻¹ s⁻¹.

Take `Cc1[nH]c2ccccc2c1CCNCc1ccc(/C=C/C(=O)NO)cc1`: the T1/2 in [11] is greater than 1.05 h; in data set [12], greater than 1670 h.

On to `CC(=O)Nc1ccc(C(=O)Nc2cc(-c3cccs3)ccc2N)cc1`, for which the T1/2 was 20 h in [30] and greater than 80 h in data set [34]. In addition, the half-life in data set [35] is 6.44 h.

For the origin of these results see ChEMBL document CHEMBL5321294, “Evolution of Slow-Binding Inhibitors Targeting Histone Deacetylase Isoforms” (J Med Chem, 2023).
